Results taken from patent US6225478A, “Iridoid derivatives and neovascularization inhibitors containing the same as active ingredient” (Tsumura & Co., priority 1999, dated 2001).

How the values were obtained:
Assay type in all cases: cell-based
[1] = test system: human umbilical-vein endothelial cells (HUVEC); test: Cell Proliferation Assay (CPA) Test, HUVEC, MTT; settings: Homo sapiens, M199 (2+) medium, read-out: CPA (IC50 μg/ml)
How it was run: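 HUVEC (7th subculture) seeded at 5×10^4 cells/ml in M-199 with 20% FCS, 10 ng/ml b-FGF and 10 ng/ml EGF, grown 24 h at 37 °C, 5% CO2. Compounds added from 1 mg/ml or 0.1 mg/ml samples in 5% DMSO-PBS(−), renewed with medium after 24 h, then cultured 48 h more. Read-out by MTT with 4 h incubation and SDS/HCl stop.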

[2] = test system: human umbilical-vein endothelial cells (HUVEC); test: Cell Migration Assay (CMA) Test, HUVEC (% relative to control); settings: Homo sapiens, HUVEC, 24 hours, 60% or less = remarkable inhibition, read-out: CMA (% relative to control); for activity at 1 µg/mL: 1 μg/ml; for activity at 10 µg/mL: 10 μg/ml
How it was run: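 Confluent 7th-subculture HUVEC monolayers scraped with razor blade, then given M199 (2+) plus 40 or 4 μl of 1 mg/ml sample (in 5% DMSO-PBS) per 4.0 ml medium for 24 h at 37 °C. Methanol-fixed, Giemsa-stained; newly migrated cells counted microscopically in 1 mm×1 mm blocks, expressed versus M199 (2+) control.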

[3] = test system: human umbilical-vein endothelial cells (HUVEC); test: Tube Formation Assay (TFA) Test, HUVEC in collagen gel; settings: Homo sapiens, HUVEC, 20 h, 20 hours, 40% or less judged remarkable, read-out: TFA (inhibition rate, %); for inhibition at 1 µg/mL: 1 μg/ml; for inhibition at 10 µg/mL: 10 μg/ml
How it was run: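 HUVEC (7th subculture, 1×10^5 cells/ml) attached to collagen gel for 2 h at 37 °C, given sample and overlaid with collagen, then cultured 20 h at 37 °C, 5% CO2 in M-199 with 20% FCS, 30 ng/ml b-FGF and 0.1 μM PMA. Tube length measured by image analysis; % inhibition relative to positive and negative controls.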

SMILES	IC50 [1] [µg/mL]	activity at 1 µg/mL [2] [%]	activity at 10 µg/mL [2] [%]	inhibition at 1 µg/mL [3] [%]	inhibition at 10 µg/mL [3] [%]
CCNC(=O)C1=CO[C@@H](OC(=O)NC)[C@@H]2[C@@H]1C[C@@H]1O[C@]21C [compound 16, (1S,4aS,6S,7R,7aR)-6,7-epoxy-1,4a,5,6,7,7a-hexahydro-7-methyl-1-(methylcarbamoyloxy) cyclopenta [c]-pyrane-4-carboxylic acid ethylamide]	> 100	98.1	102	30.7	21.6
CC[C@]12O[C@H]1C[C@@H]1C(C(=O)OC)=CO[C@@H](OC(=O)NC)[C@@H]12 [compound 43, (1S,4aS,6s,7R,7aR)-6,7-epoxy-7-ethyl-1,4a,5,6,7,7a-1-hexahydro-1-(methylcarbamoyloxy) cyclopenta [c] pyrane-4-carboxylic acid methylester]	> 100	99.9	89.3	12.4	9.1
